Experimental data: patent US20080096799A1, “COMPOUNDS FOR AND METHODS OF TREATING INSULIN RESISTANCE AND INFLAMMATION” (FORBES MEDI-TECH (RESEARCH), INC., priority 2006, published 2008)
One block for each molecule: values may come before it.

Columns and labels:
[1] = target: T1, SPT (Homo sapiens, UniProt O15269+O15270); assay: Serine palmitoyltransferase activity, Assay C ([3H]serine incorporation into lipids, cell homogenates); format: biochemical; settings: [3H]serine radioactivity incorporated into lipids, 37° C. 20 min, at the doses indicated
T1 construct: endogenous in cells; host or cells: unnamed cultured cells (Assay B, which Assay C modifies, offers 'CHO cells or a human cell line')
T1 sequence (O15269 1-473): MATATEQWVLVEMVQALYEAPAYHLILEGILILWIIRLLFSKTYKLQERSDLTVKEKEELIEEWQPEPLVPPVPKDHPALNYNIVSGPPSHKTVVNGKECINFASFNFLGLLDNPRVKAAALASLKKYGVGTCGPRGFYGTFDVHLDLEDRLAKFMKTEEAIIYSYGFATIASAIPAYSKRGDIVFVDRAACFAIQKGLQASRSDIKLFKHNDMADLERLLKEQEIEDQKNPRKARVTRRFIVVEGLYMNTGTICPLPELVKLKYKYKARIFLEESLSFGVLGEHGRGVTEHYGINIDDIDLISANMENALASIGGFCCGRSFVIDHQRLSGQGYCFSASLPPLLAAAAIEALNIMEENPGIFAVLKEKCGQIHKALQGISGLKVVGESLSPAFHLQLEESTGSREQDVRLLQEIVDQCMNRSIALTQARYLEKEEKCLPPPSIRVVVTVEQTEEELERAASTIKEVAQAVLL
T1 sequence (O15270 1-562): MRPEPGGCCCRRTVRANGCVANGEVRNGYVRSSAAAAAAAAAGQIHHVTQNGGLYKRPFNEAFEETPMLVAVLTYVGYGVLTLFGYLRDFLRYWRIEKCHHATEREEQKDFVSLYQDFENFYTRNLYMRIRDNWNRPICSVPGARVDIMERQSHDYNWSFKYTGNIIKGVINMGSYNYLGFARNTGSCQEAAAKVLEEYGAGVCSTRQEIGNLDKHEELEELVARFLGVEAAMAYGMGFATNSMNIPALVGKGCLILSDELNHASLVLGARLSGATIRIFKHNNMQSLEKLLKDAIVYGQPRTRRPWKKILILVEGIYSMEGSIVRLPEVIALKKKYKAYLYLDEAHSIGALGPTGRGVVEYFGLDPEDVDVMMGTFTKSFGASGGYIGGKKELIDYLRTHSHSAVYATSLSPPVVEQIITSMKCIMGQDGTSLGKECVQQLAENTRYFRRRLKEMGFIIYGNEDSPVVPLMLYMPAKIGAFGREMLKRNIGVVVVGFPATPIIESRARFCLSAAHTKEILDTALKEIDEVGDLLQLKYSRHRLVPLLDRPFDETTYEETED
T1 sequence (Q969W0 1-71 partner): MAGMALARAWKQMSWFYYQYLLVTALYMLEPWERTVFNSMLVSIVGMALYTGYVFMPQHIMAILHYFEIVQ
Protocol: An alternative assay for evaluating inhibition of SPT, the enzyme present in commonly cultured cells, is performed with CHO cells or a human cell line. Cells are washed three times with ice-cold phosphate-buffered saline (PBS). A total of 0.5 mL of lysis buffer [50 mM Hepes (pH 8.0) containing 5 mM ethylenediaminetetraacetic acid (EDTA) and 5 mM dithiothreitol (DTT)] is added to each dish. The cells are scraped using a rubber policeman, and are then transferred to a test tube on ice. The cell suspension is sonicated three times for 5 s at 1-2 min intervals on ice. Protein concentrations in cell homogenates are measured using a Bradford protein assay kit (Bio-Rad). […] The radioactivity is measured with a LS6000TA liquid scintillation counter (Beckman). Nonspecific conversion of [^3H] serine to chloroform-soluble species is determined by performing the assay in the absence of palmitoyl CoA. […]
An alternative assay using a non-chlorinated solvent modification of the Blye and Dyer lipid extraction method reported in Smedes (Smedes, F. (1999) Analyst 124, 1711-18) is employed to evaluate exemplary compounds. […] An accurately measured portion of the organic layer (4.0 ml) is added to a scintillation vial with 1 ml of water. […] The amount of [^3H] serine radioactivity incorporated into lipids is quantified in a scintillation counter. […]

[2] = tested on: Rat pancreatic islets; assay: Protection of islets by an SPT inhibitor (fatty acid medium, propidium iodide flow cytometry); format: cell-based; settings: 3 days
Protocol: Islet protection by an exemplary compound is evaluated in an assay according to Eitel, K, et al. Biochem. Biophys. Res. Commun. 299: 853-6 (2002), and results obtained in this assay are reported below in Table 4. Rat pancreatic islets are cultured with control medium (RPMI 1640 supplemented with 10% fetal bovine serum, antibiotics and made […]) or in medium supplemented with 1 millimolar sodium palmitate (Fatty Acid Medium) during a period of 3 days. The culture medium is changed after 2 days to an identical composition culture medium with fresh inhibitor in the appropriate wells. Cells are stained with propidium iodide (PI), washed and propidium staining of cells (as a measure of cellular DNA content) is assessed by flow cytometry. The percentage of cells having less than the normal amount of PI staining is considered to be apoptotic cells (Eitel, K, et al. (2002)).

[3] = tested on: SPT; settings: literature report, immunosuppressive assay for FTY720-like activity; cited from earlier work
[4] = tested on: diabetic Zucker fatty rat model; settings: inhibition of SPT; cited from earlier work

inhibition of SPT [1]: moderate activity
Compound: CCCCCCCOc1ccc(CCC(O)C(O)C(N)(CC(N)=O)C(=O)O)cc1 (stereo not shown) [Compound 12]
protection of cells from the fatty acid treatment (apoptotic cells by PI staining) ([2]; 1 millimolar sodium palmitate): fully protect
benefit in comparison to treatment with the control medium ([2]; PI staining): imparts a benefit

Compound: CCCCCCCCc1ccc(CCC(N)(CO)CO)cc1 [FTY720]
activity against SPT [3]: do not inhibit SPT

Compound: CCCCCCC(=O)CCCCCC/C=C/C[C@@H](O)[C@H](O)[C@@](N)(CO)C(=O)O [ISP-1, myriocin]
inhibition of SPT [1]: potent but non-selective inhibition

Compound: CCCCCCCCc1ccc(CCC(N)(CO)C(=O)O)cc1 (stereo not shown) [compound 2]
activity against SPT [3]: did not exhibit activity

Compound: N[C@@H]1CON=C1O [cycloserine]
beta cell protective effect [4]: ≈ 50%
